Experimental data reported in ChEMBL document CHEMBL1144313, “Synthesis of ring-substituted 4-aminoquinolines and evaluation of their antimalarial activities” (Bioorg Med Chem Lett, 2005).

Key:
Format in all cases: functional, organism-based
[1] = test system: Plasmodium falciparum; experiment: Effective concentration for Plasmodium falciparum W2
[2] = test system: Plasmodium falciparum; experiment: Effective concentration for Plasmodium falciparum 3D7
[3] = test system: Plasmodium falciparum; experiment: Effective concentration against Plasmodium falciparum W2

Row | EC50 [1] [nM] | EC50 ([2]; Plasmodium falciparum) [nM] | EC50 [3] [nM] | EC50 [2] [nM] | Compound
1 | 270 | 32 |  |  | CCN(CC)CCCC(C)Nc1ccnc2cc(Cl)c(C)cc12 (stereo unspecified)
2 |  | 62 |  |  | CCN(CC)CCCC(C)Nc1ccnc2ccc(OC(F)(F)F)cc12 (stereo unspecified)
3 |  | 5 | 8 |  | CCN(CC)CCCC(C)Nc1c2ccc(Cl)cc2nc2ccc(OC)cc12 (stereo in doubt; form 1) [QUINACRINE]
4 |  |  | 32 | 8 | CCN(CC)CCCC(C)Nc1c2ccc(Cl)cc2nc2ccc(OC)cc12 (stereo in doubt; form 2) [QUINACRINE]

The remaining lines, values behind:

Row | Compound | EC50 [1] [nM] | EC50 ([2]; Plasmodium falciparum) [nM] | EC50 [3] [nM] | EC50 [2] [nM]
5 | CCN(CC)CCCNc1ccnc2cc(Cl)ccc12 | 23 | 2 |  | 
6 | CCN(CC)CCCNc1ccnc2cc(C(F)(F)F)ccc12 | 62 | 33 |  | 
7 | CCN(CC)CCCNc1ccnc2cc(Oc3ccccc3)ccc12 | 71 | 34 |  | 
8 | CCN(CC)CCCNc1ccnc2ccc(OC(F)(F)F)cc12 | 102 | 82 |  | 
9 | CCN(CC)CCCC(C)Nc1ccnc2ccc(C(F)(F)F)cc12 (stereo unspecified) | 290 | 51 |  | 
10 | CCN(CC)CCCNc1ccnc2ccc(C(F)(F)F)cc12 | 125 | 90 |  | 
11 | CCN(CC)CCCNc1ccnc2cc(Cl)c(C)cc12 | 50 | 9 |  | 
